Data on 2 compounds can be found in ChEMBL document CHEMBL2412996, “Increase of anti-HIV activity of C-peptide fusion inhibitors using a bivalent drug design approach” (Bioorg Med Chem Lett, 2013).

What all share (format): cell-based
Assay [1] is described as follows: Inhibition of HIV1 HXB2 gp160-mediated cell-cell fusion between viral envelope expressing human HL2/3 cells to human TZM-bl cells expressing CD4, tat, and rev by luciferase reporter gene assay. The note with it: Human immunodeficiency virus 1, HXB2, TZM-bl.
For assay [2], the system named is TZM-bl. In words: Inhibition of HIV1 HXB2 gp160-mediated cell-cell fusion between viral envelope expressing human HL2/3 cells to human TZM-bl cells expressing CD4, tat, and rev by luciferase reporter gene assay relative to C22. The note with it: Human immunodeficiency virus 1. Background: A reporter such as luciferase makes a cellular process visible.
Assay [3] concerns TZM-bl. The experiment in a line: Inhibition of HIV1 HXB2 gp160-mediated cell-cell fusion between viral envelope expressing human HL2/3 cells to human TZM-bl cells expressing CD4, tat, and rev by luciferase reporter gene assay relative to SC22EK. Particulars: Human immunodeficiency virus 1.

Square brackets hold non-standard residues; d marks the D form. Peptide text beside a SMILES is read from it. Ahx = NCCCCCC(=O)O

In assay [1], `CC[C@H](C)[C@H](NC(=O)[C@H](CC(C)C)NC(=O)[C@H](CO)NC(=O)[C@H](Cc1cnc[nH]1)NC(=O)[C@@H](NC(=O)[C@H](CC(C)C)NC(=O)[C@H](CO)NC(=O)[C@@H](NC(=O)[C@H](Cc1ccc(O)cc1)NC(=O)[C@H](CC(N)=O)NC(=O)[C@H](CC(N)=O)NC(=O)[C@@H](NC(=O)[C@H](CCC(=O)O)NC(=O)[C@H](CCCNC(=N)N)NC(=O)[C@H](CC(=O)O)NC(=O)[C@H](Cc1c[nH]c2ccccc12)NC(=O)[C@H](CCC(=O)O)NC(=O)[C@H](CCSC)NC(=O)[C@H](Cc1c[nH]c2ccccc12)NC(=O)CCCCCNC(=O)[C@H](CS)NC(C)=O)[C@@H](C)CC)[C@@H](C)O)[C@@H](C)CC)C(=O)N[C@@H](CCC(=O)O)C(=O)N[C@@H](CCC(=O)O)C(=O)N[C@@H](CO)C(=O)O` (Ac-C[Ahx]WMEWDREINNYTSLIHSLIEES-OH) came in with a concentration for half-maximal inhibition (IC50) of 561 nM. Also, the Ratio in the assay with TZM-bl [2] came out at 2.21.

As for `CC[C@H](C)[C@H](NC(=O)[C@H](CC(C)C)NC(=O)[C@H](CCC(=O)O)NC(=O)[C@H](CCC(=O)O)NC(=O)[C@@H](NC(=O)[C@H](CCCCN)NC(=O)[C@H](CCCCN)NC(=O)[C@@H](NC(=O)[C@H](Cc1ccc(O)cc1)NC(=O)[C@H](CCC(=O)O)NC(=O)[C@H](CCC(=O)O)NC(=O)[C@@H](NC(=O)[C@H](CCCCN)NC(=O)[C@H](CCCCN)NC(=O)[C@H](CC(=O)O)NC(=O)[C@H](Cc1c[nH]c2ccccc12)NC(=O)[C@H](CCC(=O)O)NC(=O)[C@H](CCC(=O)O)NC(=O)[C@H](Cc1c[nH]c2ccccc12)NC(=O)CCCCCNC(=O)[C@H](CS)NC(C)=O)[C@@H](C)CC)[C@@H](C)O)[C@@H](C)CC)C(=O)N[C@@H](CCCCN)C(=O)N[C@@H](CCCCN)C(=O)N[C@@H](CO)C(=O)O` (Ac-C[Ahx]WEEWDKKIEEYTKKIEELIKKS-OH), the IC50 in assay [1] was 38.6 nM. Further, the Ratio in the assay with TZM-bl [3] came to 8.97.

In general, IC50 refers to the midpoint of a concentration-inhibition curve. A higher IC50 goes with a need for much substance.
